The subject of this assay is Staphylococcus aureus. Briefly: Antibacterial activity against Staphylococcus aureus measured every 10 mins for 8 hrs by liquid culture growth inhibition assay. It is filed as functional.

Converted amounts (≈) assume the structure as drawn.

`CC1=CCC[C@@H](C)[C@]1(C)CC/C(C)=C/CO[C@@H]([C@H](O)[C@H](O)CO)[C@H](O)CO`: inhibition of growth (MIC) required 250 µg/mL (≈ 647 µM).

Compound `CC1=CCC[C@@H](C)[C@]1(C)CC/C(=C/CO[C@@H]([C@H](O)[C@H](O)CO)[C@H](O)CO)CO` showed an MIC of 250 µg/mL (≈ 621 µM).

The values above are taken from ChEMBL document CHEMBL3758113, “Stelliosphaerols A and B, Sesquiterpene-Polyol Conjugates from an Ecuadorian Fungal Endophyte” (2015).
